Measurements taken from EP4104902B1, “COMPOUNDS AND M[…] SAME” (priority 2020, dated 2021).
Where two headings read alike, the source gives them in different places.

Test system: recombinant rabies virus 1088 strain expressing Gaussia Luciferase (GLuc) (1088/GLuc)
Assay type: cell-based

Row | SMILES | IC50 (read-out: Anti-rabies activity) | IC50 (read-out: IC50)
1 | CC(C)C[C@@H]1[C@@H]2[C@@H]3CN[C@@]1(C(=O)NCc1cccc4ccccc14)C[C@@H]3CN2CCO (relative stereo) [IF-542] | < 5 µM | 
2 | O=C(O)CCC1C2C3CNC1(C(=O)NCc1cccc4ccccc14)CC3CN2CC1CCCCC1 (centres unmarked) [IF-419] | 10 to 30 µM | 
3 | CC(C)CC[C@@H]1[C@@H]2[C@@H]3CN[C@@]1(C(=O)NCc1ccccc1)C[C@@H]3CN2CC1CCCCC1 (relative stereo) [IF-740] | 10 to 30 µM | 
4 | CC(C)C[C@@H]1[C@@H]2[C@@H]3CN[C@@]1(C(=O)NCCc1ccccc1)C[C@@H]3CN2CC(C)C (relative stereo) [IF-725] | 10 to 30 µM | 
5 | O=C(NCCc1ccccc1)[C@@]12C[C@@H]3CN(Cc4ccc(F)cc4)[C@@H]([C@@H]3CN1)[C@H]2Cc1ccc(O)cc1 (relative stereo) [IF-715] | < 5 µM | 
6 | CCCCCCNC(=O)[C@]12NC[C@@H]3C[C@H]1CN(CC(N)=O)[C@H]2[C@@H]3Cc1ccccc1 (relative stereo) [IB-105] | 10 to 30 µM | 
7 | N=C(N)NCCCNC(=O)[C@@]12C[C@@H]3CN(Cc4cccc5ccccc45)[C@@H]([C@@H]3CN1)[C@H]2CCc1ccccc1 (relative stereo) [IF-389] | < 5 µM | 
8 | CC(C)CN1C[C@H]2C[C@]3(C(=O)NCc4ccc(O)cc4)NC[C@H]2[C@H]1[C@H]3CCc1ccccc1 (relative stereo) [IF-576] | 10 to 30 µM | 
9 | CC(C)CCN1C[C@H]2C[C@]3(C(=O)NCc4ccccc4)NC[C@H]2[C@H]1[C@H]3CC(C)C (relative stereo) [IF-733] | < 5 µM | 
10 | CCCCCCNC(=O)[C@]12NC[C@@H]3C[C@H]1CN(CCC(C)C)[C@H]2[C@@H]3CC(C)C (relative stereo) [IB-551] | < 5 µM | 
11 | CC(C)CN1C[C@@H]2C[C@H]3CN[C@]2(C(=O)NCCC(N)=O)[C@@H]1[C@@H]3CCc1ccccc1 (relative stereo) [IB-539] | 10 to 30 µM | 
12 | CC(C)CC[C@@H]1[C@@H]2CN[C@@]3(C(=O)NCc4ccc(O)cc4)[C@@H](C2)CN(Cc2ccc(F)cc2)[C@@H]13 (relative stereo) [IB-582] | 10 to 30 µM | 
13 | CC(C)CC[C@@H]1[C@@H]2CN[C@@]3(C(=O)NCCc4ccccc4)[C@@H](C2)CN(CC(N)=O)[C@@H]13 (relative stereo) [IB-89] | < 5 µM | 
14 | CC(C)CCN1C[C@H]2C[C@]3(C(=O)NCCC(=O)O)NC[C@H]2[C@H]1[C@H]3Cc1cccc2ccccc12 (relative stereo) [IF-413] | 10 to 30 µM | 
15 | CC(C)CC1C2CNC3(C(=O)NCc4ccccc4)C(C2)CN(Cc2ccc(N(C)C)cc2)C13 (centres unmarked) [IB-873] | 5 to 10 µM | 
16 | O=C(O)CCNC(=O)C12CC3CN(CCO)C(C3CN1)C2Cc1cccc2ccccc12 (centres unmarked) [IF-444] | 10 to 30 µM | 
17 | Cc1cccc(C[C@@H]2[C@@H]3CN[C@@]4(C(=O)NCc5ccccc5)[C@@H](C3)CN(CC(C)C)[C@@H]24)c1 (relative stereo) [IB-13] | 10 to 30 µM | 14.3 µM
18 | N=C(N)NCCC[C@@H]1[C@@H]2CN[C@@]3(C(=O)NCCc4ccccc4)[C@@H](C2)CN(Cc2ccc(F)cc2)[C@@H]13 (relative stereo) [IB-262] | 10 to 30 µM | 
19 | CC(C)C[C@@H]1[C@@H]2[C@@H]3CN[C@@]1(C(=O)NCc1ccccc1)C[C@@H]3CN2Cc1ccc(F)cc1 (relative stereo) [IF-650] | < 5 µM | 
20 | CC(C)CCNC(=O)[C@]12NC[C@@H]3C[C@H]1CN(CC(C)C)[C@H]2[C@@H]3Cc1ccc(O)cc1 (relative stereo) [IB-684] | 10 to 30 µM | 

Row | SMILES | IC50 (read-out: Anti-rabies activity) | IC50 (read-out: IC50)
21 | CC(C)CCC1C2C3CNC1(C(=O)NCc1ccc(O)cc1)CC3CN2CCC(=O)O (centres unmarked) [IF-458] | 10 to 30 µM | 
22 | CC(C)C[C@@H]1[C@@H]2CN[C@@]3(C(=O)NCc4ccc(O)cc4)[C@@H](C2)CN(Cc2ccccc2)[C@@H]13 (relative stereo) [IB-464] | < 5 µM | 
23 | N=C(N)NCCCNC(=O)[C@]12NC[C@@H]3C[C@H]1CN(CC1CCCCC1)[C@H]2[C@@H]3CCc1ccccc1 (relative stereo) [IB-362] | < 5 µM | 
24 | CC(C)CNC(=O)C12CC3CN(CCC(=O)O)C(C3CN1)C2CCc1ccccc1 (centres unmarked) [IF-454] | 10 to 30 µM | 
25 | CC(C)CC1C2CNC3(C(=O)NCCc4ccccc4)C(C2)CN(Cc2ccc(F)cc2)C13 (centres unmarked) [IB-725] | < 5 µM | 
26 | CC(C)CCNC(=O)[C@]12NC[C@@H]3C[C@H]1CN(CC1CCCCC1)[C@H]2[C@@H]3Cc1ccc(O)cc1 (relative stereo) [IB-648] | 10 to 30 µM | 
27 | CC(C)CC1C2CNC3(C(=O)NCc4cccc5ccccc45)C(C2)CN(CCC(=O)O)C13 (centres unmarked) [IB-392] | 10 to 30 µM | 
28 | CC(C)CCN1CC2CC3(C(=O)NCc4ccccc4)NCC2C1C3Cc1ccccc1 (centres unmarked) [IF-9] | 10 to 30 µM | 15.6 µM
29 | CC(C)C[C@@H]1[C@@H]2CN[C@@]3(C(=O)NCc4ccccc4)[C@@H](C2)CN(Cc2ccc(O)cc2)[C@@H]13 (relative stereo) [IB-787] | 10 to 30 µM | 
30 | CCN1C[C@@H]2[C@H]3CN(CC(C)C)[C@@H]2[C@@H](Cc2ccccc2)[C@]1(C(=O)NCc1ccccc1)C3 (relative stereo) [IF-69] | 10 to 30 µM | 16.5 µM
31 | CC(C)CN1CC2CC3(C(=O)NCCC(=O)O)NCC2C1C3Cc1cccc2ccccc12 (centres unmarked) [IF-428] | 10 to 30 µM | 
32 | NC(=O)CN1C[C@H]2C[C@]3(C(=O)NCc4ccc(O)cc4)NC[C@H]2[C@H]1[C@H]3Cc1cccc2ccccc12 (relative stereo) [IF-137] | < 5 µM | 
33 | CC(C)CNC(=O)[C@]12NC[C@@H]3C[C@H]1CN(Cc1cccc4ccccc14)[C@H]2[C@@H]3Cc1ccc(O)cc1 (relative stereo) [IB-763] | 10 to 30 µM | 
34 | NC(=O)CN1CC2CC3CNC2(C(=O)NCc2ccccc2)C1C3CCc1ccccc1 (centres unmarked) [IB-130] | 10 to 30 µM | 
35 | CC(C)C[C@@H]1[C@@H]2CN[C@@]3(C(=O)NCCO)[C@@H](C2)CN(Cc2cccc4ccccc24)[C@@H]13 (relative stereo) [IB-643] | 10 to 30 µM | 
36 | O=C(O)CCN1CC2CC3CNC2(C(=O)NCc2ccc(O)cc2)C1C3Cc1cccc2ccccc12 (centres unmarked) [IB-516] | 10 to 30 µM | 
37 | CC(C)CNC(=O)C12NCC3CC1CN(CC1CCCCC1)C2C3CCC(=O)O (centres unmarked) [IB-510] | 10 to 30 µM | 
38 | CC(C)CN1C[C@H]2C[C@]3(C(=O)NCc4ccc(O)cc4)NC[C@H]2[C@H]1[C@H]3Cc1cccc2ccccc12 (relative stereo) [IF-500] | 10 to 30 µM | 
39 | Cc1ccc(CNC(=O)[C@@]23C[C@@H]4CN(CC(C)C)[C@@H]([C@@H]4C=N2)[C@H]3Cc2ccccc2)cc1 (relative stereo) [IIF-16] | 10 to 30 µM | 28.7 µM
40 | CC(C)CCNC(=O)[C@@]12C[C@@H]3CN(Cc4ccccc4)[C@@H]([C@@H]3CN1)[C@H]2Cc1ccccc1 (relative stereo) [IF-665] | < 5 µM | 

Row | SMILES | IC50 (read-out: Anti-rabies activity) | IC50 (read-out: IC50)
41 | CC(C)CC[C@@H]1[C@@H]2CN[C@@]3(C(=O)NCCc4ccccc4)[C@@H](C2)CN(Cc2ccc(O)cc2)[C@@H]13 (relative stereo) [IB-544] | 10 to 30 µM | 
42 | O=C(NCc1cccc2ccccc12)[C@@]12C[C@@H]3CN(Cc4ccc(O)cc4)[C@@H]([C@@H]3CN1)[C@H]2Cc1cccc2ccccc12 (relative stereo) [IF-779] | 10 to 30 µM | 
43 | CC(C)CNC(=O)[C@@]12C[C@@H]3CN(CC(C)C)[C@@H]([C@@H]3CN1)[C@H]2Cc1cccc2ccccc12 (relative stereo) [IF-680] | 10 to 30 µM | 
44 | CC(C)CC[C@@H]1[C@@H]2[C@@H]3CN[C@@]1(C(=O)NCCC(N)=O)C[C@@H]3CN2Cc1cccc2ccccc12 (relative stereo) [IF-384] | 10 to 30 µM | 
45 | CC(C)CCN1C[C@@H]2C[C@H]3CN[C@]2(C(=O)NCCO)[C@@H]1[C@@H]3CCc1ccccc1 (relative stereo) [IB-658] | 10 to 30 µM | 
46 | O=C(NCc1ccc(O)cc1)[C@@]12C[C@@H]3CN(CC4CCCCC4)[C@@H]([C@@H]3CN1)[C@H]2Cc1ccccc1 (relative stereo) [IF-477] | < 5 µM | 
47 | CC(C)CCN1C[C@H]2C[C@]3(C(=O)NCc4ccc(F)cc4)NC[C@H]2[C@H]1[C@H]3Cc1ccccc1 (relative stereo) [IF-547] | < 5 µM | 
48 | CC(C)CC[C@@H]1[C@@H]2[C@@H]3CN[C@@]1(C(=O)NCCc1ccccc1)C[C@@H]3CN2Cc1ccccc1 (relative stereo) [IF-723] | 10 to 30 µM | 
49 | CC(C)CC1C2C=NC3(C(=O)NCc4ccccc4)C(C2)CN(Cc2ccc(N(C)C)cc2)C13 (centres unmarked) [IIB-94] | 5 to 10 µM | 
50 | CCCCCCNC(=O)[C@@]12C[C@@H]3CN(CCC(C)C)[C@@H]([C@@H]3CN1)[C@H]2CC(C)C (relative stereo) [IF-546] | 10 to 30 µM | 
51 | CC(C)CCNC(=O)[C@]12NC[C@@H]3C[C@H]1CN(CC(C)C)[C@H]2[C@@H]3Cc1ccccc1 (relative stereo) [IB-780] | < 5 µM | 
52 | COC(=O)N1CC2CC3CN(Cc4ccc(C)cc4)C(C2CC(C)C)C31C(=O)NCc1ccccc1 (centres unmarked) [IB-885] | 5 to 10 µM | 
53 | CC(C)CC[C@@H]1[C@@H]2[C@@H]3CN[C@@]1(C(=O)NCc1ccc(F)cc1)C[C@@H]3CN2CC(N)=O (relative stereo) [IF-95] | 10 to 30 µM | 
54 | N=C(N)NCCCNC(=O)[C@]12NC[C@@H]3C[C@H]1CN(Cc1ccccc1)[C@H]2[C@@H]3Cc1cccc2ccccc12 (relative stereo) [IB-280] | 10 to 30 µM | 
55 | CCCCCCNC(=O)C12NCC3CC1CN(CCO)C2C3CCC(C)C (centres unmarked) [IB-490] | < 5 µM | 
56 | CC(C)CCN1CC2CC3CNC2(C(=O)NCc2cccc4ccccc24)C1C3CO (centres unmarked) [IB-426] | < 5 µM | 
57 | CC(C)CN1C[C@H]2C[C@]3(C(=O)NCc4ccccc4)NC[C@H]2[C@H]1[C@H]3Cc1ccccc1 (relative stereo) [IF-1, (3S*, 3aS*, 6S*, 7R*, 7aS*) -N, 7-dibenzyl-1-isobutyloctahydro-6H-3,6-methanopyrrolo[3,2-c]pyridine-6-carboxamide] | 10 to 30 µM | 12.6 µM
58 | NC(=O)CN1C[C@@H]2C[C@H]3CN[C@]2(C(=O)NCc2cccc4ccccc24)[C@@H]1[C@@H]3Cc1cccc2ccccc12 (relative stereo) [IB-90] | < 5 µM | 
59 | CC(C)CCN1C[C@H]2C[C@]3(C(=O)NCC(C)C)NC[C@H]2[C@H]1[C@H]3Cc1ccccc1 (relative stereo) [IF-735] | 10 to 30 µM | 
60 | CC(C)CC[C@@H]1[C@@H]2CN[C@@]3(C(=O)NCC(C)C)[C@@H](C2)CN(CC(C)C)[C@@H]13 (relative stereo) [IB-378] | < 5 µM | 
